Experimental data: patent US20090054403A1, “Treatment of Post-Traumatic Stress Disorder” (priority 2007, published 2009)
Read-outs that look alike come from different tables or passages of the source.

How the values were obtained:
[1] = molecular target: Ca2+/calmodulin protein kinase II; assay: Selected enzyme assay; type: biochemical
Procedure: (§1) The activity of nepicastat at twelve selected enzymes and receptors was determined using established assays. Details of individual receptor radioligand binding assays can be found in Wong et al (1993). Binding data were analyzed by iterative curve-fitting to a four parameter logistic equation. Ki values were calculated from IC50 values using the Cheng-Prusoff equation. Enzyme inhibitory activity was expressed as IC50 (concentration required to produce 50% inhibition of enzyme activity). Male SHRs (15-16 weeks old, Charles River, Wilmington, Mass., USA) were used in the study. On the day of the study, animals were weighed and randomly assigned to be dosed with either vehicle (control) or the appropriate dose of nepicastat (3, 10, 30 or 100 mg.kg^−1, po) or (R)-5-Aminomethyl-1-(5,7-difluoro-1,2,3,4-tetrahydronaphth-2-yl)-2,3-dihydro-2-thioxo-1H-imidazole hydrochloride (30 mg.kg^−1, po) three consecutive times, twelve hours apart. At six hours after the third dose, the rats were anaesthetized with halothane, decapitated and tissues (cerebral cortex, mesenteric artery and left ventricle) were rapidly harvested, weighed, placed in iced perchloric acid (0.4 M), frozen in liquid nitrogen and stored at −70° C. until subsequent analysis. To quantify noradrenaline and dopamine concentrations, tissues were homogenized by brief sonication and centrifuged at 13,000 rpm for 30 minutes at 4° C. The supernatant, spiked with 3,4-dihydroxybenzylamine (internal standard), was assayed for noradrenaline and dopamine by HPLC using electrochemical detection.
(§2) In vitro assay of selected enzymes and neurotransmitter receptors. The activity of 2a at eleven different enzymes was determined using established assays (PanLabs Inc, Foster City, Calif.). The affinity of 2a for thirteen selected receptors was determined by radioligand binding assays using standard filtration techniques and membrane preparations. Binding data were analyzed by iterative curve fitting to a four parameter logistic equation. Ki values were calculated using the Cheng-Prusoff equation.

[2] = molecular target: T1, HMG-CoA reductase (Homo sapiens, UniProt P04035); assay: Selected enzyme assay; type: biochemical
T1 construct: PanLabs Inc (assay provider)
T1 sequence (P04035 whole entry, species assumed): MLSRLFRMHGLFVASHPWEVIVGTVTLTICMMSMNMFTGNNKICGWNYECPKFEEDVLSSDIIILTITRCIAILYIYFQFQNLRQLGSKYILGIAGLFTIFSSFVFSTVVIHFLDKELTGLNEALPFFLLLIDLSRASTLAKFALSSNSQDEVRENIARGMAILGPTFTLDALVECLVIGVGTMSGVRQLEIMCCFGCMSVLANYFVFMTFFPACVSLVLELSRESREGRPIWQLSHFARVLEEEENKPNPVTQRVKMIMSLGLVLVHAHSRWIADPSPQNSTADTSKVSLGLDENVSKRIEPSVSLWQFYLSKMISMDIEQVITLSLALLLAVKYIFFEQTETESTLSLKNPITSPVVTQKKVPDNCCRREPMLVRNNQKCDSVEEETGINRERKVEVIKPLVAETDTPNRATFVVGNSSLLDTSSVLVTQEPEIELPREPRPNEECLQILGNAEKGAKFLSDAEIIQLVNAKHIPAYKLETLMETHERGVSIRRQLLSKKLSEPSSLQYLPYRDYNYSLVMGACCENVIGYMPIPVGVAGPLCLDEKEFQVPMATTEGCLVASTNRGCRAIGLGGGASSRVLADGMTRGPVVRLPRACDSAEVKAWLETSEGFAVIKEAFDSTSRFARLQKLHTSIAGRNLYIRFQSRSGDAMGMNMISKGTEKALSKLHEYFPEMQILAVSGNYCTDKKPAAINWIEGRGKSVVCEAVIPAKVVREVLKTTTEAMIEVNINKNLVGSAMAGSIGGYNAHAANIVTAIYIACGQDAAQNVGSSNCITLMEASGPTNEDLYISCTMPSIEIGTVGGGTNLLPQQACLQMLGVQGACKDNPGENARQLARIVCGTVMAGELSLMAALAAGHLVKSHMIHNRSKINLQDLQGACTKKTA
Procedure: as §1, §2

[3] = molecular target: acetyl CoA synthetase; assay: Selected enzyme assay; type: biochemical
Procedure: as §1, §2

[4] = molecular target: acyl CoA-cholesterol acyl transferase; assay: Selected enzyme assay; type: biochemical
Procedure: as §1, §2

[5] = molecular target: T2, cyclooxygenase-I (Homo sapiens, UniProt P23219); assay: Selected enzyme assay; type: biochemical
T2 construct: PanLabs Inc (assay provider)
T2 sequence (P23219 24-599): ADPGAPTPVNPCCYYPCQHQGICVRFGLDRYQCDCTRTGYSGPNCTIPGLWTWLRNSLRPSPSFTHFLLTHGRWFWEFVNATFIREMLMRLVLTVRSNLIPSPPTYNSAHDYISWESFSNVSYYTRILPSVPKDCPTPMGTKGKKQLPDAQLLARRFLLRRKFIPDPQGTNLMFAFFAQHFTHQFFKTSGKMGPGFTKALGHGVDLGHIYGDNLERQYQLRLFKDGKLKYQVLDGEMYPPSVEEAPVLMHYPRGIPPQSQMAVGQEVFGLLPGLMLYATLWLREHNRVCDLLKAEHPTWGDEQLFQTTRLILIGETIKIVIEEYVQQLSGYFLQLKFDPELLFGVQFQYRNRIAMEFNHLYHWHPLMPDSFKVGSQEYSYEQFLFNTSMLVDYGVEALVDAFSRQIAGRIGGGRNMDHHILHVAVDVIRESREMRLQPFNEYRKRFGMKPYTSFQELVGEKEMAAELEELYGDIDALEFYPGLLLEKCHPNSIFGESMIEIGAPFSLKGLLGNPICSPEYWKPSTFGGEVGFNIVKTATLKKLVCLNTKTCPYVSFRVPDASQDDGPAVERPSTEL
Procedure: as §1, §2

[6] = molecular target: T3, neutral endopeptidase (Homo sapiens, UniProt P08473); assay: Selected enzyme assay; type: biochemical
T3 construct: PanLabs Inc (assay provider)
T3 sequence (P08473 whole entry, species assumed): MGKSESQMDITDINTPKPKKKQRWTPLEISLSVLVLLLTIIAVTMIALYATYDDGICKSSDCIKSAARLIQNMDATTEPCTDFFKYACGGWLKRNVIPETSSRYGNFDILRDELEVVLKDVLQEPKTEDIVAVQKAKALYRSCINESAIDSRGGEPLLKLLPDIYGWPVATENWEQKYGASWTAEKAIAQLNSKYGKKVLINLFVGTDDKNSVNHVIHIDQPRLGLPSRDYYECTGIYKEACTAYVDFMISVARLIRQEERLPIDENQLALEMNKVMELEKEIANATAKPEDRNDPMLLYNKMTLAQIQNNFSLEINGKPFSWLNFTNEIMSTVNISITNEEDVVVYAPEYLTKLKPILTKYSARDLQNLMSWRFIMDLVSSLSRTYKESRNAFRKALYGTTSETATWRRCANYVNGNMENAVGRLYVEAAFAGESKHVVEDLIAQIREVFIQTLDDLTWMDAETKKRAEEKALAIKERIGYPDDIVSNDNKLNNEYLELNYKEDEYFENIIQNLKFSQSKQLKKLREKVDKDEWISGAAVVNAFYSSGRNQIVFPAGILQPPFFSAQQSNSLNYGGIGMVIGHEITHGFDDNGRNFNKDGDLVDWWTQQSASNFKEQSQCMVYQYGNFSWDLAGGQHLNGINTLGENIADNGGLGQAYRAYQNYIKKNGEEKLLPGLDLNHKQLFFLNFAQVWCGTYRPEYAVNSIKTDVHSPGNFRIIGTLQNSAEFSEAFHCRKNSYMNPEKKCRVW
Procedure: as §1, §2

[7] = molecular target: nitric oxide synthase; assay: Selected enzyme assay; type: biochemical
Procedure: as §1, §2

[8] = molecular target: protein kinase C; assay: Selected enzyme assay; type: biochemical; settings: b560 prints protein kinase (non-selective)
Procedure: as §1, §2

[9] = molecular target: T4, tyrosine hydroxylase (Homo sapiens, UniProt P07101); assay: Selected enzyme assay; type: biochemical
T4 construct: PanLabs Inc (assay provider)
T4 sequence (P07101 whole entry): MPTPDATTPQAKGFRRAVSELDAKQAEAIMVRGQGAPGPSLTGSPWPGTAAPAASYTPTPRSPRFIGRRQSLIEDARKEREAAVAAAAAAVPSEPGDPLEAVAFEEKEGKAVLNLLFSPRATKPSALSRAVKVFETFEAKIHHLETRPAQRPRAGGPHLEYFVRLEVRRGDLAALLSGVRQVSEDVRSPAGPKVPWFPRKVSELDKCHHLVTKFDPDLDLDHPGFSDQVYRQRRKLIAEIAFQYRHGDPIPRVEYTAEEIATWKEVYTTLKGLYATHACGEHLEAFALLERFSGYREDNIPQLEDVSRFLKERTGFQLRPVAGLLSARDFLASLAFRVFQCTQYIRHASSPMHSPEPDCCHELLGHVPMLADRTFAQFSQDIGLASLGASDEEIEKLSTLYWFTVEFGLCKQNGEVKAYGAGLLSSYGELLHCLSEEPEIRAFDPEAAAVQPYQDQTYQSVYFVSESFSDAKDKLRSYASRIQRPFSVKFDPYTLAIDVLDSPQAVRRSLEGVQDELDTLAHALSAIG
Procedure: as §1, §2

[10] = molecular target: 5-HT2A serotonin receptors (Homo sapiens, UniProt P28223); assay: Radioligand binding assay
5-HT2A serotonin receptors, sequence (P28223 whole entry): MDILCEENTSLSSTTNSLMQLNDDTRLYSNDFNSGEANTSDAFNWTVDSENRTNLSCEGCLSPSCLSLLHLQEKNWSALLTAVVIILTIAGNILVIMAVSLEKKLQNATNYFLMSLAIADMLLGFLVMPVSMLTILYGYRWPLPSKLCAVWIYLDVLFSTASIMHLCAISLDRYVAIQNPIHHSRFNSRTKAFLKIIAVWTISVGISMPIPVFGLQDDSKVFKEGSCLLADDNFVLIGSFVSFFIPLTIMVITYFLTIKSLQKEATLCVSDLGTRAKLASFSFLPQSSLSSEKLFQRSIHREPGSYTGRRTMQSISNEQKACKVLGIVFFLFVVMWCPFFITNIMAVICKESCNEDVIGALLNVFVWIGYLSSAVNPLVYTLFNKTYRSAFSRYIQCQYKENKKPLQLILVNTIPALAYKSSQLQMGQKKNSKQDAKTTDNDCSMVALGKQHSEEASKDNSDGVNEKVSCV
Procedure: as §1, §2

[11] = molecular target: 5-HT2C serotonin receptors (Homo sapiens, UniProt P28335); assay: Radioligand binding assay
5-HT2C serotonin receptors, sequence (P28335 33-458): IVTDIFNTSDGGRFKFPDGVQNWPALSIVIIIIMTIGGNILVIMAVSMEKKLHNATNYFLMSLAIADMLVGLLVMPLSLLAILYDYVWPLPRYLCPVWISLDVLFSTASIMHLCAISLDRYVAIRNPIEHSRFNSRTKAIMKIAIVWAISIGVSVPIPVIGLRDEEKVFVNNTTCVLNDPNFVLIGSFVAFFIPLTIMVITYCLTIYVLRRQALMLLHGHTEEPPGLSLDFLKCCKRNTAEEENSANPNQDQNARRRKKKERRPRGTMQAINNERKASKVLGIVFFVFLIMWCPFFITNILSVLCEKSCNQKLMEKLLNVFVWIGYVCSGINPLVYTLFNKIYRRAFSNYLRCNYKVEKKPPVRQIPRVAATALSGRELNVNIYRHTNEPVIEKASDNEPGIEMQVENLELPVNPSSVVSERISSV
Procedure: as §1, §2

[12] = molecular target: α2B adrenoceptors (Homo sapiens, UniProt P18089); assay: Radioligand binding assay
α2B adrenoceptors, sequence (P18089 whole entry): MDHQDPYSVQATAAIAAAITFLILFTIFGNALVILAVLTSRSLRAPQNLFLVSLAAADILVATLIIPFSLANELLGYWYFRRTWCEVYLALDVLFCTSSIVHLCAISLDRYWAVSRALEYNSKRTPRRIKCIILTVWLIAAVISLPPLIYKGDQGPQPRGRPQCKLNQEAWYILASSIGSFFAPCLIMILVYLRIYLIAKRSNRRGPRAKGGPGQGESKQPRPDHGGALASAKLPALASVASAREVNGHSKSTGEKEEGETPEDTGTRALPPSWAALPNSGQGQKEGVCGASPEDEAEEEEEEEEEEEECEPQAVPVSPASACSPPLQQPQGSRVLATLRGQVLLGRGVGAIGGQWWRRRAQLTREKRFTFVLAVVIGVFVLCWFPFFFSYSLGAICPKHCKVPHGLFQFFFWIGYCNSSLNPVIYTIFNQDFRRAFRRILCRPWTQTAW
Procedure: as §1, §2

[13] = molecular target: ⊕1B adrenoceptors (Homo sapiens, UniProt P35368); assay: Radioligand binding assay
⊕1B adrenoceptors, sequence (P35368 whole entry): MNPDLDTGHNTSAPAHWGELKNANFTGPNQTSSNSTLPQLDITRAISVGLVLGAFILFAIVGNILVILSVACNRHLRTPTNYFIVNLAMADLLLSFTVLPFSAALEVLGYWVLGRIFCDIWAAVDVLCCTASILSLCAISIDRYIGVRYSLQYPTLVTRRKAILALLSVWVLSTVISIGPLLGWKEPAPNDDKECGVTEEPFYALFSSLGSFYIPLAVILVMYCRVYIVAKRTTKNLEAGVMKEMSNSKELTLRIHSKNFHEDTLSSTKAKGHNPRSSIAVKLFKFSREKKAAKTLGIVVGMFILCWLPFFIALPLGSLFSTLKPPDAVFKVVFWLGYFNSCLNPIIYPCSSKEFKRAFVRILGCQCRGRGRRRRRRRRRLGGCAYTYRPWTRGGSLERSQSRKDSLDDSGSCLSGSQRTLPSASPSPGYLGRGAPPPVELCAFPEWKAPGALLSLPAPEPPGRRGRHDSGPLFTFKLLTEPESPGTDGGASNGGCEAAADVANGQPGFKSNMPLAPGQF
Procedure: as §1, §2

[14] = Pharmacokinetics after single oral dose in rats (plasma and brain); type: in vivo, rats (Crl: CD BR Vaf+); settings: for half-life: Crl: CD BR Vaf+, rat, plasma, read-out: elimination half-life (converted)
Procedure: Male rats (Crl: CD BR Vaf+) weighing 180-220 g were fasted overnight before dosing and until 4 hr after dosing. Doses were formulated in water containing 2% 1-hydroxypropyl methylcellulose (50 centipoises viscosity), 1% benzyl alcohol, and 0.6% Tween 80 (all obtained from Sigma Chemical Company). Concentration of drug in the dose solutions was 5, 15, and 50 mg/ml for the 10, 30, and 100 mg/kg doses, respectively, and was verified by liquid chromatography (LC). The 5 mg/ml dose was a clear solution and the higher concentrations were a translucent suspension. Dose volumes were 2.0 ml/kg. At various times after dosing, samples of blood were obtained by cardiac puncture with heparinized syringes, and plasma was prepared by centrifugation. Brains of rats were surgically excised, and all samples were frozen at −20° C. until analysis.
Aliquots of plasma (0.05 or 0.5 ml) were mixed with internal standard (50 μl of methanol containing 5 μg/ml a monofluoro analog of nepicastat, and 5 mg/ml dithiothreitol). Samples were mixed with 200 mM sodium phosphate buffer, pH 7.0, (0.5 ml) and extracted with 3 ml of ethyl acetate/hexane (1/1, v/v). The organic phase containing analytes was back extracted with 250 μl of 250 mM acetic acid and 100 μl aliquots of the aqueous phase were assayed by LC. The LC system used a Keystone Hypersil BDS 15 cm C8 column at ambient temperature. Mobile phase A was 12.5 mM potassium phosphate, pH 3.0, with 5 mM dodecanesulfonic acid and mobile phase B was acetonitrile. Solvent composition was 40% B and was pumped at a flow rate of 1 ml/min. Detection was by UV absorption at 261 nm. Concentrations of analytes were determined from a standard curve generated from the analysis of plasma from untreated rats fortified with known concentrations of analyte. Plasma concentration data are expressed as μg (free base) per ml.
Brains were rinsed briefly with saline, blotted on a paper towel, then weighed (1.5-2.0 g). Internal standard was added (50 μl of methanol containing 20 μg/ml a monofluoro analog of nepicastat), and brains were homogenized in 5 ml of 200 mM sodium phosphate, pH 7.0, containing 0.5 mg/ml dithiothreitol. Aliquots of homogenate (2 ml) were extracted with 10 ml of ethyl acetate/hexane (1/1, v/v). The organic phase was gently back extracted with 150 μl of 250 mM acetic acid.
Following addition of 100 μl of methanol to the aqueous phase (to disperse any emulsion), 100 μl aliquots were assayed by LC as described for plasma. Level in brain are expressed as μg (free base) per g of brain tissue.
Pharmacokinetic parameters were calculated from mean plasma concentrations. Plasma half-life (T1/2) was calculated as 0.693/β, where β is the elimination rate constant determined by linear regression of the log plasma concentration vs. time data within the terminal linear portion of the data. Areas under the plasma concentration vs. time curve (AUC) from zero to the time of the last quantifiable plasma concentrations were calculated by the trapezoidal rule. AUC from zero to infinity (AUCtotal) was calculated as:
AUCtotal=AUC(0−Clast)+Clastβ where Clast is the last quantifiable plasma concentration.

For `Cl.NCc1c[nH]c(=S)n1[C@H]1CCc2c(F)cc(F)cc2C1` [nepicastat, (S)-5-Aminomethyl-1-(5,7-difluoro-1,2,3,4-tetrahydronaphth-2-yl)-2,3-dihydro-2-thioxo-1H-imidazole hydrochloride], the IC50 [1] was > 10 µM, the IC50 [2] was > 10 µM and the IC50 [3] was > 10 µM. The IC50 [4] was > 10 µM, the IC50 [5] was > 10 µM and the IC50 [6] was > 10 µM. The IC50 [7] was > 10 µM, the IC50 [8] was > 10 µM and the IC50 [9] was > 10 µM. The Ki [10] was > 10 µM, the Ki [11] was > 10 µM and the Ki [12] was > 10 µM. The Ki [13] was > 10 µM, the “concentrations in brain relative to plasma” value ([14]; 10 mg/kg oral, male rats, from 2 hr following dosing onward) was “exceeded those in plasma” and the “plasma AUCtotal in female rats relative to male rats (higher by)” value ([14]; 30 mg/kg oral) was 77%. The “relationship between AUCtotal and dose” value ([14]; 10-100 mg/kg oral, male rats) was “linear”, the half-life ([14]; 10 mg/kg oral, male rats) was 1.7 h and the half-life ([14]; 30 mg/kg oral, male rats) was 2.09 h. It also gave a half-life ([14]; 100 mg/kg oral, male rats) of 3.88 h.
